Earlier results as cited in paper PMC5693832 (Ophthalmology and Therapy, 2017).

Key:
platelets = settings: humans
[1] = tested on: IOP over a 24-h diurnal time period; settings: for IOP reduction over the 24 h period, in words: 24-h diurnal period
[2] = tested on: diurnal IOP in POAG or OHT patients; settings: 0.006% to 0.040%, 28 days
IOP = settings: 0.024%, summary of the clinical trials
[3] = tested on: IOP in healthy Japanese subjects; settings: 0.024% once daily for 14 days
[4] = tested on: IOP in Japanese subjects with POAG or OHT; settings: 0.024% every evening

SMILES	NO release after oral administration (platelets)	IOP reduction over the 24 h period, in words [1]	adverse events (pupil dilation, blurred vision) [2]	efficacy (change from baseline mean diurnal IOP), dose relation [2]	post treatment mean IOP (SD), nighttime ([1]; nighttime, baseline 25.7 (3.8) mmHg)	additional IOP reduction versus latanoprost and timolol monotherapy (IOP)	most common adverse events [3]	severity of adverse events [3]	IOP (SD) at 52 weeks [4]	IOP reduction by 52 weeks from baseline ([4]; baseline 19.6 (2.9) mmHg) [%]
CC(=O)Oc1ccccc1C(=O)Oc1cccc(CO[N+](=O)[O-])c1 [NCX 4016, 2-(acetyloxy)benzoic acid-3-[(nitrooxy)methyl]phenyl ester]	capable of releasing NO	–	–	–	–	–	–	–	–	–
CC(C)(C)NC[C@H](O)COc1nsnc1N1CCOCC1 [timolol]	–	primarily effective during the daytime	–	–	–	–	–	–	–	–
O=C(CCC/C=C\C[C@@H]1[C@@H](CC[C@@H](O)CCc2ccccc2)[C@H](O)C[C@@H]1O)OCCCCO[N+](=O)[O-] [latanoprostene bunod]	–	sustained IOP reduction during the 24 h period	neither pupil dilation nor blurred vision were reported as adverse events	dose-dependent	23.2 (3.4) mmHg	1–2 mmHg	punctate keratitis and conjunctival hyperemia	mild	14.4 (2.7) mmHg	26
